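48-hour exposure; five concentrations; linearly interpolated endpoints. GI50 is the concentration that inhibits growth by half. The concentration for full growth arrest is given as TGI.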
Legend:
Test in all cases: DTP human tumour cell line panel, 48 h
SK-MEL-5 melanoma = tested on: SK-MEL-5 melanoma
OVCAR-4 ovarian = tested on: OVCAR-4 ovarian
UO-31 renal = tested on: UO-31 renal
NCI-H522 lung = tested on: NCI-H522 lung
U251 CNS = tested on: U251 CNS
RXF 393 renal = tested on: RXF 393 renal
DU-145 prostate = tested on: DU-145 prostate
K-562 leukemia = tested on: K-562 leukemia
NCI-H226 lung = tested on: NCI-H226 lung
HCT-116 colon = tested on: HCT-116 colon
A549 NSCLC = tested on: A549 NSCLC
HT29 colon = tested on: HT29 colon
MALME-3M melanoma = tested on: MALME-3M melanoma
HCC-2998 colon = tested on: HCC-2998 colon
T-47D breast = tested on: T-47D breast
A498 renal = tested on: A498 renal
SNB-75 CNS = tested on: SNB-75 CNS
NCI/ADR-RES ovarian = tested on: NCI/ADR-RES ovarian
BT-549 breast = tested on: BT-549 breast
KM12 colon = tested on: KM12 colon
OVCAR-5 ovarian = tested on: OVCAR-5 ovarian
SF-268 CNS = tested on: SF-268 CNS
SR leukemia = tested on: SR leukemia
SK-OV-3 ovarian = tested on: SK-OV-3 ovarian
COLO 205 colon = tested on: COLO 205 colon
PC-3 prostate = tested on: PC-3 prostate
IGROV1 ovarian = tested on: IGROV1 ovarian
SK-MEL-2 melanoma = tested on: SK-MEL-2 melanoma
OVCAR-8 ovarian = tested on: OVCAR-8 ovarian
RPMI-8226 leukemia = tested on: RPMI-8226 leukemia
NCI-H460 lung = tested on: NCI-H460 lung
UACC-62 melanoma = tested on: UACC-62 melanoma
CCRF-CEM leukemia = tested on: CCRF-CEM leukemia
NCI-H23 lung = tested on: NCI-H23 lung
TK-10 renal = tested on: TK-10 renal
MDA-MB-435 = tested on: MDA-MB-435
SNB-19 CNS = tested on: SNB-19 CNS
CAKI-1 renal = tested on: CAKI-1 renal
ACHN renal = tested on: ACHN renal
OVCAR-3 ovarian = tested on: OVCAR-3 ovarian
MOLT-4 leukemia = tested on: MOLT-4 leukemia
UACC-257 melanoma = tested on: UACC-257 melanoma
SW-620 colon = tested on: SW-620 colon
HL-60(TB) leukemia = tested on: HL-60(TB) leukemia
HOP-92 NSCLC = tested on: HOP-92 NSCLC
HCT-15 colon = tested on: HCT-15 colon
HOP-62 NSCLC = tested on: HOP-62 NSCLC
SN12C renal = tested on: SN12C renal
LOX IMVI melanoma = tested on: LOX IMVI melanoma
SF-295 CNS = tested on: SF-295 CNS
786-0 renal = tested on: 786-0 renal
MDA-MB-231 breast = tested on: MDA-MB-231 breast
SF-539 CNS = tested on: SF-539 CNS
SK-MEL-28 melanoma = tested on: SK-MEL-28 melanoma
M14 melanoma = tested on: M14 melanoma
MCF7 breast = tested on: MCF7 breast
HS 578T breast = tested on: HS 578T breast
EKVX NSCLC = tested on: EKVX NSCLC

c1cc(CNC23CC4CC(CC(C4)C2)C3)cc(C[N+](Cc2cccc(CNC34CC5CC(CC(C5)C3)C4)c2)(Cc2cccc(CNC34CC5CC(CC(C5)C3)C4)c2)Cc2cccc(CNC34CC5CC(CC(C5)C3)C4)c2)c1 (stereo unspecified)
GI50 (SK-MEL-5 melanoma): 6.36 µM
TGI (SK-MEL-5 melanoma): 26.3 µM
GI50 (OVCAR-4 ovarian): 4.85 µM
TGI (OVCAR-4 ovarian): 22.8 µM
GI50 (UO-31 renal): 3.41 µM
TGI (UO-31 renal): 8.21 µM
GI50 (NCI-H522 lung): 3.06 µM
TGI (NCI-H522 lung): 6.49 µM
GI50 (U251 CNS): 4.68 µM
TGI (U251 CNS): 11.3 µM
GI50 (RXF 393 renal): 3.39 µM
TGI (RXF 393 renal): 6.54 µM
GI50 (DU-145 prostate): 6.16 µM
TGI (DU-145 prostate): 19.3 µM
GI50 (K-562 leukemia): 6.1 µM
TGI (K-562 leukemia): 151 µM
GI50 (NCI-H226 lung): 11.5 µM
TGI (NCI-H226 lung): 45.3 µM
GI50 (HCT-116 colon): 3.04 µM
TGI (HCT-116 colon): 8.42 µM
GI50 (A549 NSCLC): 8.91 µM
TGI (A549 NSCLC): 36.4 µM
GI50 (HT29 colon): 3.58 µM
TGI (HT29 colon): 11.8 µM
GI50 (MALME-3M melanoma): 3.51 µM
TGI (MALME-3M melanoma): 7.77 µM
GI50 (HCC-2998 colon): 5.11 µM
TGI (HCC-2998 colon): 22.2 µM
GI50 (T-47D breast): 5.59 µM
TGI (T-47D breast): 28.1 µM
GI50 (A498 renal): 4.98 µM
TGI (A498 renal): 29.5 µM
GI50 (SNB-75 CNS): 9.78 µM
TGI (SNB-75 CNS): 40.7 µM
GI50 (NCI/ADR-RES ovarian): 6.01 µM
TGI (NCI/ADR-RES ovarian): 19 µM
GI50 (BT-549 breast): 4.27 µM
TGI (BT-549 breast): 11.6 µM
GI50 (KM12 colon): 6.92 µM
TGI (KM12 colon): 28.2 µM
GI50 (OVCAR-5 ovarian): 4.09 µM
TGI (OVCAR-5 ovarian): 11.5 µM
GI50 (SF-268 CNS): 6.39 µM
TGI (SF-268 CNS): 22.6 µM
GI50 (SR leukemia): 6.22 µM
TGI (SR leukemia): 209 µM
GI50 (SK-OV-3 ovarian): 21.4 µM
TGI (SK-OV-3 ovarian): 47.7 µM
GI50 (COLO 205 colon): 4.57 µM
TGI (COLO 205 colon): 13.1 µM
GI50 (PC-3 prostate): 5.86 µM
TGI (PC-3 prostate): 21.6 µM
GI50 (IGROV1 ovarian): 3.7 µM
TGI (IGROV1 ovarian): 9.8 µM
GI50 (SK-MEL-2 melanoma): 4.44 µM
TGI (SK-MEL-2 melanoma): 13.4 µM
GI50 (OVCAR-8 ovarian): 8.64 µM
TGI (OVCAR-8 ovarian): 35.4 µM
GI50 (RPMI-8226 leukemia): 5.51 µM
TGI (RPMI-8226 leukemia): 16.7 µM
GI50 (NCI-H460 lung): 4.97 µM
TGI (NCI-H460 lung): 11.3 µM
GI50 (UACC-62 melanoma): 4.86 µM
TGI (UACC-62 melanoma): 15.4 µM
GI50 (CCRF-CEM leukemia): 6.1 µM
TGI (CCRF-CEM leukemia): 209 µM
GI50 (NCI-H23 lung): 6.38 µM
TGI (NCI-H23 lung): 26.6 µM
GI50 (TK-10 renal): 7.75 µM
TGI (TK-10 renal): 30 µM
GI50 (MDA-MB-435): 3.45 µM
TGI (MDA-MB-435): 8.81 µM
GI50 (SNB-19 CNS): 8.05 µM
TGI (SNB-19 CNS): 30.4 µM
GI50 (CAKI-1 renal): 5.36 µM
TGI (CAKI-1 renal): 19.6 µM
GI50 (ACHN renal): 3.65 µM
TGI (ACHN renal): 8.92 µM
GI50 (OVCAR-3 ovarian): 4.35 µM
TGI (OVCAR-3 ovarian): 11.8 µM
GI50 (MOLT-4 leukemia): 5.52 µM
TGI (MOLT-4 leukemia): 17.1 µM
GI50 (UACC-257 melanoma): 12.9 µM
TGI (UACC-257 melanoma): 45.3 µM
GI50 (SW-620 colon): 5.23 µM
TGI (SW-620 colon): 16.5 µM
GI50 (HL-60(TB) leukemia): 3.64 µM
TGI (HL-60(TB) leukemia): 11.3 µM
GI50 (HOP-92 NSCLC): 4.74 µM
TGI (HOP-92 NSCLC): 12.8 µM
GI50 (HCT-15 colon): 4.59 µM
TGI (HCT-15 colon): 16.4 µM
GI50 (HOP-62 NSCLC): 11.1 µM
TGI (HOP-62 NSCLC): 42.1 µM
GI50 (SN12C renal): 5.9 µM
TGI (SN12C renal): 18.5 µM
GI50 (LOX IMVI melanoma): 2.11 µM
TGI (LOX IMVI melanoma): 5.3 µM
GI50 (SF-295 CNS): 12.7 µM
TGI (SF-295 CNS): 43.6 µM
GI50 (786-0 renal): 3.55 µM
TGI (786-0 renal): 7.75 µM
GI50 (MDA-MB-231 breast): 8.73 µM
TGI (MDA-MB-231 breast): 31 µM
GI50 (SF-539 CNS): 4.23 µM
TGI (SF-539 CNS): 10.3 µM
GI50 (SK-MEL-28 melanoma): 6.94 µM
TGI (SK-MEL-28 melanoma): 33.1 µM
GI50 (M14 melanoma): 3.36 µM
TGI (M14 melanoma): 8.69 µM
GI50 (MCF7 breast): 4.46 µM
TGI (MCF7 breast): 25.9 µM
GI50 (HS 578T breast): 8.01 µM
TGI (HS 578T breast): 49.4 µM

Cc1ccc2c(c1)C(C(=O)N[C@@H]1C(=O)N3[C@@H]1SC(C)(C)[C@@H]3C(=O)O)OCCC2 (stereo partly specified)
TGI (SK-MEL-5 melanoma): > 100 µM
TGI (OVCAR-4 ovarian): > 100 µM
TGI (UO-31 renal): > 100 µM
TGI (NCI-H522 lung): > 100 µM
TGI (U251 CNS): > 100 µM
TGI (RXF 393 renal): > 100 µM
TGI (DU-145 prostate): > 100 µM
TGI (K-562 leukemia): > 100 µM
TGI (NCI-H226 lung): > 100 µM
TGI (HCT-116 colon): > 100 µM
TGI (A549 NSCLC): > 100 µM
TGI (HT29 colon): > 100 µM
TGI (HCC-2998 colon): > 100 µM
TGI (T-47D breast): > 100 µM
TGI (A498 renal): > 100 µM
TGI (SNB-75 CNS): > 100 µM
TGI (NCI/ADR-RES ovarian): > 100 µM
TGI (BT-549 breast): > 100 µM
TGI (KM12 colon): > 100 µM
TGI (OVCAR-5 ovarian): > 100 µM
TGI (SF-268 CNS): > 100 µM
TGI (SR leukemia): > 100 µM
TGI (SK-OV-3 ovarian): > 100 µM
TGI (COLO 205 colon): > 100 µM
TGI (PC-3 prostate): > 100 µM
TGI (IGROV1 ovarian): > 100 µM
TGI (SK-MEL-2 melanoma): > 100 µM
TGI (OVCAR-8 ovarian): > 100 µM
TGI (RPMI-8226 leukemia): > 100 µM
TGI (NCI-H460 lung): > 100 µM
TGI (UACC-62 melanoma): > 100 µM
TGI (CCRF-CEM leukemia): > 100 µM
TGI (NCI-H23 lung): > 100 µM
TGI (TK-10 renal): > 100 µM
TGI (MDA-MB-435): > 100 µM
TGI (SNB-19 CNS): > 100 µM
TGI (EKVX NSCLC): > 100 µM
TGI (CAKI-1 renal): > 100 µM
TGI (ACHN renal): > 100 µM
TGI (OVCAR-3 ovarian): > 100 µM
TGI (MOLT-4 leukemia): > 100 µM
TGI (UACC-257 melanoma): > 100 µM
TGI (SW-620 colon): > 100 µM
TGI (HL-60(TB) leukemia): > 100 µM
TGI (HOP-92 NSCLC): > 100 µM
TGI (HCT-15 colon): > 100 µM
TGI (HOP-62 NSCLC): > 100 µM
TGI (SN12C renal): > 100 µM
TGI (LOX IMVI melanoma): > 100 µM
TGI (SF-295 CNS): > 100 µM
TGI (786-0 renal): > 100 µM
TGI (MDA-MB-231 breast): > 100 µM
TGI (SF-539 CNS): > 100 µM
TGI (SK-MEL-28 melanoma): > 100 µM
TGI (M14 melanoma): > 100 µM
TGI (MCF7 breast): > 100 µM
TGI (HS 578T breast): > 100 µM
